Test results from patent US10087187B2, “Imidazopyridazine derivatives as PI3KB inhibitors” (Janssen Pharmaceutica NV, priority 2014, dated 2018).
Where two headings read alike, the source gives them in different places.

Key:
[1] = biological target: PIK3Cδ_h (Homo sapiens (Human), UniProt O00329); experiment: KINOMEscan enzyme binding assay, PIK3Cδ; conditions: DiscoveRx
Procedure: (§1) Enzyme Binding Assays (KINOMEscan®) Kinase enzyme binding affinities of compounds disclosed herein were determined using the KINOMEscan technology performed by DiscoveRx Corporation, San Diego, Calif., USA (www.kinomescan.com). Table A reports the obtained Kd values (nM), with the Kd being the inhibitor binding constant: […]

[2] = test system: Akt phosphorylated at Thr308 in PC-3 cells; experiment: Cellular assay: phosphorylation of Akt (Thr308) in PC-3 cells, MSD ELISA; format: cell-based; conditions: 60 min incubation with compound, read-out: IC50 pAkt_Thr308
Procedure: (§2) Cellular activity of PI3Kβ inhibitors was determined by quantifying the phosphorylation of Akt in PC-3 cells. Akt phosphorylated at Ser473 and Thr308 were measured using an enzyme-linked immunosorbent assay (ELISA; Meso Scale Discovery (MSD), Gaithersburg, Md.) and specific primary antibodies from MSD.
(§3) On day 1, PC3 cells (ATCC # […]) were seeded into PerkinElmer MW96 plates at 25.000 cells per well, in 75 μl complete culture medium (DMEM (Dulbecco's Modified Eagle's Medium) high glucose, AQmedia™, D0819, Sigma-Aldrich) containing 10% heat inactivated FCS (Fetal Bovine Serum) and incubated at 37° C., 5% CO2 during 24 hours. On day 2, compound or DMSO (dimethyl sulfoxide) (0.3%) was added and cells were further incubated for 60 min at 37° C., 5% CO2 in a total volume of 100 μl of medium.
(§4) The phosphoprotein assay was executed according to vendor instructions in the Phospho-Akt (Ser473) Assay Whole Cell Lysate Kit (MSD # K15100D-3) and the Phospho-Akt (Thr308) Assay Whole Cell Lysate Kit (MSD # K151DYD-3) using the lysis, blocking and wash buffer provided.
(§5) Briefly, at the end of the cell treatment period, media were removed by aspiration and adherent cells were lysed in 50 μl ice-cold lysis buffer. MSD plates are supplied pre-coated with capture antibodies for Phospho-Akt (Ser473 and Thr308). After blocking, lysates from tissue culture plates were added and plates were washed. Then, a solution containing the detection antibody (anti-total Akt conjugated with an electrochemiluminescent compound-MSD Sulfo-tag label) was added. The signals were detected using an MSD SECTOR Imager 6000 and are proportional to the phospho-Akt titres.
(§6) Data were processed. The percentage of inhibition was plotted against the log concentration of test compounds, and the sigmoidal log concentration-effect curve of best fit was calculated by nonlinear regression analysis. From these concentration-response curves, the IC50 values were calculated. Five concentrations were used for curve fitting.

[3] = biological target: PIK3Cα_h (Homo sapiens (Human), UniProt P42336); experiment: KINOMEscan enzyme binding assay, PIK3Cα; conditions: DiscoveRx
Sequence of PIK3Cα_h (P42336 whole entry): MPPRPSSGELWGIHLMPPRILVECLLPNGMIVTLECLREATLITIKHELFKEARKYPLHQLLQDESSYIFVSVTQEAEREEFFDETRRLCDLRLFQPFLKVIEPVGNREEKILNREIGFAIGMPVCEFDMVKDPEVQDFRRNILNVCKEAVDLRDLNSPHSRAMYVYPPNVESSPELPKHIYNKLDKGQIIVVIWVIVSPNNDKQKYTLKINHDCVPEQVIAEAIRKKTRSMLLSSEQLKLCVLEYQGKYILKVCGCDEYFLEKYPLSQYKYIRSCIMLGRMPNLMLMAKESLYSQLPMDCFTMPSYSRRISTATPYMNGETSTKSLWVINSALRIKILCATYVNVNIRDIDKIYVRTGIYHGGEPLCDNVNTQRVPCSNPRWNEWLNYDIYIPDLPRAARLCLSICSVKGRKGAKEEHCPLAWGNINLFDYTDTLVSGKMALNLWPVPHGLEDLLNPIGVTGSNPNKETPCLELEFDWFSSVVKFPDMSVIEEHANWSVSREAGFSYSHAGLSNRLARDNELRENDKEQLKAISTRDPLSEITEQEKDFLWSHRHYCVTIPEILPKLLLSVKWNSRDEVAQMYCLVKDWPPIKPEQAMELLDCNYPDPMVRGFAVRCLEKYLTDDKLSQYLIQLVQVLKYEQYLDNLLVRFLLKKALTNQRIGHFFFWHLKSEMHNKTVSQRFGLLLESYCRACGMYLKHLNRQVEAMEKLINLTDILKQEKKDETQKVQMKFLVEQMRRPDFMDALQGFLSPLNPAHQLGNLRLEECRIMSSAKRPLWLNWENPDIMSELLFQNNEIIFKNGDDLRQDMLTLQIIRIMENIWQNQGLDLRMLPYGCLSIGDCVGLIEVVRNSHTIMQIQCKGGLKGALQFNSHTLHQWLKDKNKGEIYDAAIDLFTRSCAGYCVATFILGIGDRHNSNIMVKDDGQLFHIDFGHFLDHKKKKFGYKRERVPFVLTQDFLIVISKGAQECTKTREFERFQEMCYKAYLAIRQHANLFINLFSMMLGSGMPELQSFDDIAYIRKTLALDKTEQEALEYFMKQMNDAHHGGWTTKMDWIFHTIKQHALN
Procedure: (§7) Enzyme Binding Assays (KINOMEscan®) Kinase enzyme binding affinities of compounds disclosed herein were determined using the KINOMEscan technology performed by DiscoveRx Corporation, San Diego, Calif., USA (www.kinomescan.com).

[4] = test system: Akt phosphorylated at Ser473 in PC-3 cells; experiment: Cellular assay: phosphorylation of Akt (Ser473) in PC-3 cells, MSD ELISA; format: cell-based; conditions: 60 min incubation with compound, read-out: IC50 pAkt_S473
Procedure: as §2, §3, §4, §5, §6

[5] = biological target: PIK3Cγ_h (Homo sapiens (Human), UniProt P48736); experiment: KINOMEscan enzyme binding assay, PIK3Cγ; conditions: DiscoveRx
Sequence of PIK3Cγ_h (P48736 whole entry): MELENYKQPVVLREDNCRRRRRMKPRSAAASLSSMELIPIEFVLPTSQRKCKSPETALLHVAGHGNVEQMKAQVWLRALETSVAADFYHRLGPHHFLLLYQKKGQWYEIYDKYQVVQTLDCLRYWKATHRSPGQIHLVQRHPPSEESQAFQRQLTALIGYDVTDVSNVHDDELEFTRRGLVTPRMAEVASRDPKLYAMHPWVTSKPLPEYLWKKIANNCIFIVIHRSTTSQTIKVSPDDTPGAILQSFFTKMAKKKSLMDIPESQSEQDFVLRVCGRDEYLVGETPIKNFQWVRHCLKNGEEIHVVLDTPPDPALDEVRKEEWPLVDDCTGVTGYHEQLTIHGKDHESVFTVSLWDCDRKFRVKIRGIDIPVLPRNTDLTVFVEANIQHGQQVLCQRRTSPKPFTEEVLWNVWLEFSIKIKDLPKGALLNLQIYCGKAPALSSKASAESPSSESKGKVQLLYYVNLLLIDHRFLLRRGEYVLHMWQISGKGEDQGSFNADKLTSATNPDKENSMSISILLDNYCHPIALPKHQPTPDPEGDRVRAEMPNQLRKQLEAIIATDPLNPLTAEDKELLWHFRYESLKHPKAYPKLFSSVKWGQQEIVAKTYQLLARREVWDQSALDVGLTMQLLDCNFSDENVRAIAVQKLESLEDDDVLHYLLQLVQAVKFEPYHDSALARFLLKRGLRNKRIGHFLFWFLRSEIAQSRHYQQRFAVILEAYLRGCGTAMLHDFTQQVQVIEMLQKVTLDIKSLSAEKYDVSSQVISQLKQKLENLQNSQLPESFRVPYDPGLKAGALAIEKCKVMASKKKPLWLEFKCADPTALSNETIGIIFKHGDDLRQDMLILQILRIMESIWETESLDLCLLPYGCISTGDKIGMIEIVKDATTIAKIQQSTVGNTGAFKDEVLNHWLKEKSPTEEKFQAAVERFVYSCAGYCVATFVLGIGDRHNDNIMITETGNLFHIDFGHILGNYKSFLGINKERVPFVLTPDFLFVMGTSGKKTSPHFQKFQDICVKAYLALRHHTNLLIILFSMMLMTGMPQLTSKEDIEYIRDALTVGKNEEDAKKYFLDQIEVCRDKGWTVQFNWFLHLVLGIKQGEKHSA
Procedure: as §7

[6] = biological target: MTOR_h (Homo sapiens (Human), UniProt P42345); experiment: KINOMEscan enzyme binding assay, MTOR; conditions: DiscoveRx
Procedure: as §7

[7] = biological target: PIK3Cβ_h (Homo sapiens (Human), UniProt P42338); experiment: KINOMEscan enzyme binding assay, PIK3Cβ; conditions: DiscoveRx
Sequence of PIK3Cβ_h (P42338 whole entry): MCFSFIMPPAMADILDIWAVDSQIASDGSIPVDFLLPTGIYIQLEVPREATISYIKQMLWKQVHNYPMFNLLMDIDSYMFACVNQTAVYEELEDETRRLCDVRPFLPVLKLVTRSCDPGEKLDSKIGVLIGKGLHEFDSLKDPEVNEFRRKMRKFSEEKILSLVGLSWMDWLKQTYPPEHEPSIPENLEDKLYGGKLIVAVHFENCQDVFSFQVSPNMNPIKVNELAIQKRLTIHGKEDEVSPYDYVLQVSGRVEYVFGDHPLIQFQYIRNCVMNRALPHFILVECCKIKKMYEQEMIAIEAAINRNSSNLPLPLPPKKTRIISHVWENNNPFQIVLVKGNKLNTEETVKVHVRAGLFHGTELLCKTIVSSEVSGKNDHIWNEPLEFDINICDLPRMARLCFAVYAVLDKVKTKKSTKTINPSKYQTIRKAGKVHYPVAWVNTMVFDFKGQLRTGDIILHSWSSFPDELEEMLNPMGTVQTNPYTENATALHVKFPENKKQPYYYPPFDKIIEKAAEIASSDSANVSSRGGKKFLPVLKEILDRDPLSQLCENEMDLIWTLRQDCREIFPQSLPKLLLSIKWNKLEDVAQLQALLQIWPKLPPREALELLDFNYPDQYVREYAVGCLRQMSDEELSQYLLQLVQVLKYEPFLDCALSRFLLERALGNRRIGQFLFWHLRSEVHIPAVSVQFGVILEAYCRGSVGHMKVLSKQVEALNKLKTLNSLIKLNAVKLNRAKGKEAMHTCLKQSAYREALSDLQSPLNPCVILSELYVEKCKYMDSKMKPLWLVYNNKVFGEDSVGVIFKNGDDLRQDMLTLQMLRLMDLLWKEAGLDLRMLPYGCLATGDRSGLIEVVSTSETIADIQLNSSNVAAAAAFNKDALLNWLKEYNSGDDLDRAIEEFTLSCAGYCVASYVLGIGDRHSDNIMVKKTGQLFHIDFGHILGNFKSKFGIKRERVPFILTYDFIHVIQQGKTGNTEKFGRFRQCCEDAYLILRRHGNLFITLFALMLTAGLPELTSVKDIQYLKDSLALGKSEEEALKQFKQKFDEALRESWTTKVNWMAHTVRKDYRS
Procedure: as §1

Sequence of PIK3Cδ_h (O00329 whole entry): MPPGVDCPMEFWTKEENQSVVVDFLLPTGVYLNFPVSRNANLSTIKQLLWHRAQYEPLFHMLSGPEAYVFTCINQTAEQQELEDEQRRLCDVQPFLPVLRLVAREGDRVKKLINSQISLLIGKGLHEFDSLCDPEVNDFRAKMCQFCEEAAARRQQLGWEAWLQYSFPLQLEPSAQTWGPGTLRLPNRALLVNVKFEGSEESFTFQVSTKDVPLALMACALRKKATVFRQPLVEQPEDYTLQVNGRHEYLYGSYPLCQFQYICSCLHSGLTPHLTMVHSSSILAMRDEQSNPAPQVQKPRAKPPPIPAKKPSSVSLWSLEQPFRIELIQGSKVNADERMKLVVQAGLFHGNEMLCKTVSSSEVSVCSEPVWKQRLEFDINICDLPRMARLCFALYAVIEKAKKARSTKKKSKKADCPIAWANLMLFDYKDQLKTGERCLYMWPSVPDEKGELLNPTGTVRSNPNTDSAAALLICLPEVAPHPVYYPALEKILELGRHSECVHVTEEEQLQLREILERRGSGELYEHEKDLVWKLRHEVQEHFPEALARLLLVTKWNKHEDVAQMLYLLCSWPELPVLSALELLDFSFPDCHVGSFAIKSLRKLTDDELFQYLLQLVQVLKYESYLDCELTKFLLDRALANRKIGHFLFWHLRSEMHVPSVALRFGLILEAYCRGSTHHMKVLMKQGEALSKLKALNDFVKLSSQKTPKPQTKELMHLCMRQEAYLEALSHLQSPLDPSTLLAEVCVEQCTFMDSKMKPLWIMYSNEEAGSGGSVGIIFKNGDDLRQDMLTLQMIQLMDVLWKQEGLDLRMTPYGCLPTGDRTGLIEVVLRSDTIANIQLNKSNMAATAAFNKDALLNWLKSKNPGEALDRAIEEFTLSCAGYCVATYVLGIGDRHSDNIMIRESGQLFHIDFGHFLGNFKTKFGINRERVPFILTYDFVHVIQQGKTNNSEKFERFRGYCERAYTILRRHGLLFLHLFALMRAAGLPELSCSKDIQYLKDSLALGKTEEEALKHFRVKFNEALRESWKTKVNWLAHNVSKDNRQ

## Cc1c(Cc2c(CN)nc3c(N)cc(N4CCOCC4)nn23)cccc1C(F)(F)F [Compound 85]
[1]
  Kd: 75 nM
[2]; Homo sapiens, PC-3, 1 h
  IC50: 86 nM
[3]
  Kd: > 23000 nM
[4]; Homo sapiens, PC-3, 1 h
  IC50: 115 nM
[5]
  Kd: 7480 nM
[6]
  Kd: 2680 nM
[7]
  Kd: 0.7 nM

## Cc1c(F)cccc1Cc1c(CO)nc2c(N)cc(N3CCOCC3)nn12 [Compound 93]
[1]
  Kd: 166 nM
[2]; Homo sapiens, PC-3, 1 h
  IC50: 120 nM
[3]
  Kd: > 30200 nM
[4]; Homo sapiens, PC-3, 1 h
  IC50: 174 nM
[5]
  Kd: 3890 nM
[6]
  Kd: 1900 nM
[7]
  Kd: 2.7 nM

## Cc1nc2c(N)cc(N3CCOCC3)nn2c1Nc1cccc(C(F)(F)F)c1CN1CCCC1 [Compound 62]
[1]
  Kd: 35 nM
[2]; Homo sapiens, PC-3, 1 h
  IC50: ~74 nM
[3]
  Kd: 22400 nM
[4]; Homo sapiens, PC-3, 1 h
  IC50: 110 nM
[5]
  Kd: 30200 nM
[6]
  Kd: > 30200 nM
[7]
  Kd: 10 nM

## Cc1c(Cc2c(COC(=O)C(C)N)nc3c(N)cc(N4CCOCC4)nn23)cccc1C(F)(F)F (stereo not drawn) [Compound 84]
[1]
  Kd: 48 nM
[2]
  IC50: 98 nM
[3]
  Kd: 12000 nM
[4]
  IC50: 141 nM
[5]
  Kd: 12600 nM
[6]
  Kd: 7940 nM
[7]
  Kd: 0.5 nM

## CCc1c(F)cccc1Cc1c(CO)nc2c(N)cc(N3CCOCC3)nn12 [Compound 99]
[1]
  Kd: 832 nM
[2]; Homo sapiens, PC-3, 1 h
  IC50: 200 nM
[3]
  Kd: 10500 nM
[4]; Homo sapiens, PC-3, 1 h
  IC50: 257 nM
[5]
  Kd: 3310 nM
[6]
  Kd: 1620 nM
[7]
  Kd: 8.3 nM

## Cc1nc2c(-c3ncc[nH]3)cc(N3CCOCC3)nn2c1Nc1cccc(C(F)(F)F)c1C [Compound 34]
[1]
  Kd: 81 nM
[2]; Homo sapiens, PC-3, 1 h
  IC50: ~32 nM
[3]
  Kd: 2240 nM
[4]; Homo sapiens, PC-3, 1 h
  IC50: ~56 nM
[5]
  Kd: 6920 nM
[6]
  Kd: > 10000 nM
[7]
  Kd: 3 nM

## Cc1nc2c(N)cc(N3CCOCC3)nn2c1Nc1cccc(C(F)(F)F)c1CN1CCC(O)C1 (stereo not drawn) [Compound 78]
[1]
  Kd: 35 nM
[2]
  IC50: 26 nM
[3]
  Kd: 3240 nM
[4]
  IC50: 51 nM
[7]
  Kd: 1.3 nM

## Cc1nc2c(N)cc(N3CCOCC3)nn2c1Nc1cccc(C(F)(F)F)c1CNC(C)CO (stereo not drawn) [Compound 56]
[1]
  Kd: 16 nM
[2]
  IC50: ~5 nM
[3]
  Kd: 1710 nM
[4]
  IC50: ~7 nM
[5]
  Kd: 8680 nM
[6]
  Kd: > 30200 nM
[7]
  Kd: 1.2 nM

## Cc1nc2c(C(=O)O)cc(N3CCOCC3)nn2c1Cc1cccc(C(F)(F)F)c1C [Compound 9]
[1]
  Kd: 174 nM
[2]; Homo sapiens, PC-3, 1 h
  IC50: 316 nM
[3]
  Kd: 1350 nM
[4]; Homo sapiens, PC-3, 1 h
  IC50: 513 nM
[5]
  Kd: 5250 nM
[6]
  Kd: 12900 nM
[7]
  Kd: 1.4 nM

## Cc1c(Cc2c(COC(=O)C(C)N)nc3c(N)cc(N4CCOCC4)nn23)cccc1C(F)(F)F (stereo not drawn) [Compound 79]
[1]
  Kd: 120 nM
[2]
  IC50: 45 nM
[3]
  Kd: 8710 nM
[4]
  IC50: 27 nM
[5]
  Kd: 17400 nM
[6]
  Kd: 8910 nM
[7]
  Kd: 0.8 nM

## Cc1c(Nc2c(CO)nc3c(C(N)=O)cc(N4CCOCC4)nn23)cccc1C(F)(F)F [Compound 37]
[1]
  Kd: 214 nM
[2]; Homo sapiens, PC-3, 1 h
  IC50: 20 nM
[3]
  Kd: 575 nM
[4]; Homo sapiens, PC-3, 1 h
  IC50: 11 nM
[5]
  Kd: 759 nM
[6]
  Kd: 3240 nM
[7]
  Kd: 2.2 nM

## Cc1c(Cc2c(CO)nc3c(N)cc(N4CCOCC4)nn23)cccc1C(F)(F)F [Compound 14]
[1]
  Kd: 207 nM
[2]
  IC50: ~38 nM
[3]
  Kd: > 9180 nM
[4]
  IC50: ~63 nM
[5]
  Kd: > 8880 nM
[6]
  Kd: > 5690 nM
[7]
  Kd: 1.3 nM

## Cc1nc2c(N)cc(N3CCOCC3)nn2c1Nc1ccccc1CN1CCOCC1 [Compound 69]
[1]
  Kd: 56 nM
[2]; Homo sapiens, PC-3, 1 h
  IC50: 151 nM
[3]
  Kd: 5370 nM
[4]; Homo sapiens, PC-3, 1 h
  IC50: 186 nM
[5]
  Kd: 24500 nM
[6]
  Kd: 1510 nM
[7]
  Kd: 15 nM

## Cc1nc2c(N)cc(N3CCOCC3)nn2c1Nc1cccc(F)c1C [Compound 44]
[1]
  Kd: 105 nM
[2]; Homo sapiens, PC-3, 1 h
  IC50: ~11 nM
[3]
  Kd: 9330 nM
[4]; Homo sapiens, PC-3, 1 h
  IC50: 34 nM
[5]
  Kd: 14800 nM
[6]
  Kd: 5370 nM
[7]
  Kd: 1.5 nM

## Cc1c(Cc2c(CO)nc3c(C(N)=O)cc(N4CCOCC4)nn23)cccc1C(F)(F)F [Compound 15]
[1]
  Kd: 479 nM
[2]; Homo sapiens, PC-3, 1 h
  IC50: ~43 nM
[3]
  Kd: 1100 nM
[4]; Homo sapiens, PC-3, 1 h
  IC50: ~91 nM
[5]
  Kd: 2000 nM
[6]
  Kd: > 30200 nM
[7]
  Kd: 7 nM

## Cc1c(Cc2c(CO)nc3c(N)cc(N4CCOCC4)nn23)cccc1C(F)(F)F [Compound 14e]
[2]
  IC50: 41 nM
[4]
  IC50: 52 nM

## Cc1nc2c(N)cc(N3CCOCC3)nn2c1Nc1cccc(C(F)(F)F)c1CN1CCC(O)C1 (stereo not drawn) [Compound 74]
[1]
  Kd: 31 nM
[2]; Homo sapiens, PC-3, 1 h
  IC50: 26 nM
[3]
  Kd: 4900 nM
[4]; Homo sapiens, PC-3, 1 h
  IC50: 30 nM
[7]
  Kd: 2.2 nM

## Cc1nc2c(N)cc(N3CCOCC3)nn2c1Nc1cccc(C(F)(F)F)c1CO [Compound 51]
[1]
  Kd: 166 nM
[2]; Homo sapiens, PC-3, 1 h
  IC50: ~81 nM
[4]; Homo sapiens, PC-3, 1 h
  IC50: 145 nM
[6]
  Kd: 11500 nM
[7]
  Kd: 2.1 nM

## Cc1nc2c(N)cc(N3CCOCC3)nn2c1Nc1cccc(C(F)(F)F)c1CN1CCC(O)C1 (stereo not drawn) [Compound 77]
[1]
  Kd: 47 nM
[2]
  IC50: 25 nM
[3]
  Kd: 3160 nM
[4]
  IC50: 58 nM
[7]
  Kd: 1.4 nM

## Cc1nc2c(N)cc(N3CCOCC3)nn2c1Nc1ccccc1N1CCOCC1 [Compound 88]
[1]
  Kd: 69 nM
[2]; Homo sapiens, PC-3, 1 h
  IC50: 120 nM
[3]
  Kd: 11200 nM
[5]
  Kd: 8320 nM
[6]
  Kd: 8710 nM
[7]
  Kd: 12 nM

## Nc1cc(N2CCOCC2)nn2c(Cc3cccc(C(F)(F)F)c3C3CCN(CCO)CC3)c(CO)nc12 [Compound 105]
[1]
  Kd: 537 nM
[2]; Homo sapiens, PC-3, 1 h
  IC50: 85 nM
[3]
  Kd: 26300 nM
[5]
  Kd: > 30200 nM
[6]
  Kd: > 30200 nM
[7]
  Kd: 1.2 nM

## CCc1c(F)cccc1Cc1c(CNCCO)nc2c(N)cc(N3CCOCC3)nn12 [Compound 101]
[2]; Homo sapiens, PC-3, 1 h
  IC50: > 513 nM
[4]; Homo sapiens, PC-3, 1 h
  IC50: > 513 nM

## Cc1c(Cc2c(CO)nc3c(-c4cnc[nH]4)cc(N4CCOCC4)nn23)cccc1C(F)(F)F [Compound 19]
[2]; Homo sapiens, PC-3, 1 h
  IC50: 26 nM
[4]; Homo sapiens, PC-3, 1 h
  IC50: 28 nM

## Cc1c(Cc2c(CO)nc3c(N)cc(N4CCOCC4)nn23)cccc1C(F)(F)F [Compound 14d]
[2]
  IC50: 29 nM
[4]
  IC50: 67 nM
